Laboratory results published in patent US11041013B2, “Methods of preparation and composition of peptide constructs useful for treatment of rheumatoid arthritis” (Cel-Sci Corporation, priority 2008, dated 2021).

Legend:
[1] = system: collagen induced arthritis (CIA); test: CIA model, arthritis index (AI) score; assay type: in vivo, DBA/1J mice; details: for effectiveness in the murine CIA model of RA relative to SEQ ID NO. 99: studies 1-5 and FIGS. 1-4; for progression of disease, as indicated by AI scores: two treatments of 33 nmoles in ICFA adjuvant, Enbrel 3 mg/kG daily for the first 14 days
Procedure: The following five studies are of CEL-2000 therapeutic vaccine for collagen induced arthritis (CIA) where the first step was to identify a good animal model for testing the vaccine, which is the collagen induced arthritis (CIA) model in young (6-7) week old male DBA/1J mice. These mice received 2 injections of bovine collagen the first in complete Freund's adjuvant (CFA) on day 0 and then 3 weeks later on day 21, in Incomplete CFA. After the second collagen injection, the mice were evaluated daily for any joint swelling or redness. Each of the paws was scored on a 4 point scale (arthritis index Arthritis Index (AI)) with respect to the number of digits with symptoms and the thickness of the paw measured, at least 3-4 times a week. Each mouse was weighed weekly.
The first study is the CIA model CEL-2000 therapeutic vaccination conjugate specificity effect on AI scores (study 4.1 see FIG. 1 and legend). When significant disease is noted, usually about day 28, the mice are grouped (n=8) with a range of scores between 1 and 6 and group mean of 2.5 to 3. At this point the therapy begins according to protocol. Controls include groups with induced disease but no therapy and groups of healthy mice without induced disease. A therapy control of Enbrel (3 mg/kG daily) was included. In this study (FIG. 1), mice received two treatments of 33 nmoles (for CEL-2000 equivalent to 4.8 mg/kG) of CEL-2000, (the same dose as used for the L.E.A.P.S. HSV vaccines), or other conjugates of the same collagen peptide used in CEL-2000 using the same ICBLs as in the HSV or EAM systems for comparison using a GMP grade ICFA adjuvant.
AI scores are evaluations on a scale of 0=normal to 4=maximal effect of joint thickening, redness, immobilization of joints in a digit or total paw for each of the 4 paws in the CIA mouse model of rheumatoid arthritis.
Treatment started when group score was 3.5. This was done to have all groups starting with same score, as opposed to the range between […] seen in the first study. The same dose of Enbrel as was used in the first study but was given every other day for the entire study period of 28 days.

cytokines = test: Serum cytokines after immunization (Ray Biotech protein microarrays); assay type: in vivo, A/J mice; details: unmodified J ICBL emulsified in Seppic ISA51
Procedure: The outcome of the immune response to vaccines is likely at least in part determined by the cytokines elicited by the immunization. Cytokines elicited by immunization of A/J mice with either the J, JgD or JH peptides emulsified in Seppic ISA51 were evaluated from serum obtained on days 3, 10 and 24 after immunization using Ray Biotech protein microarrays. […] IL12 is produced by DCs and macrophages and promotes the development of Th1 responses which are characterized by production of IL2 and IFN-γ. […] L.E.A.P.S. conjugates ex vivo studies

[2] = system: collagen induced arthritis (CIA); test: CIA model, histopathology of right rear feet; assay type: in vivo, DBA/1J mice; details: for disease pathology compared statistically with untreated CIA mice: Enbrel: 14 days after cessation of therapy, 3×CEL-2000: 3 weeks after immunization; for histopathology: bone resorption / histopathology: cartilage damage / histopathology: inflammation / histopathology: pannus: hind paw and ankle, Enbrel for 14 days, CEL-2000 100 nmol on days 0 and 7
Text: The fourth study is for the CIA model CEL-2000 therapeutic vaccination; histopathology (study 4.4 see FIG. 4 and legend). At the termination of the experiments the animals were euthanized, the right rear feet were collected and stored individually in buffered formalin to be fixed in preparation for paraffin embedding, sectioning, staining and analysis. The feet in buffered formalin were sent for processing, reading and plotting of the data (representative sections from mid group specimens were photographed).
The pathologists scored the feet for disease pathology in 4 areas: inflammation, pannus, cartilage and bone. FIG. 4 is a summary plot of the analysis performed cores of the 4 areas from the following groups: Control no disease; CIA disease: CIA Disease Enbrel daily for 14 days continued for 2 more weeks before termination: CEL-2000 and CEL-2001 groups (vaccinated on day 0 and 7) from study 1 (FIG. 1) and from study 2 (FIG. 2) 1× and 3×CEL-2000 vaccinated groups on day 0 and 7.

[3] = system: vaccine peptides, collagen or citrulline or components used to make vaccines; details: mouse, in vivo
Procedure: The fifth study is for the CIA-model CEL-2000 vaccination serum antibodies (study 4.5). Antibody production to the vaccine peptides, collagen or citrulline or components used to make vaccines were evaluated in mouse sera from the previous two sets of studies. As expected, all sera recognized the bovine collagen molecule used to induce the disease. Neither the dose, amount of vaccine, nor timing of vaccination seemed to affect the titer or isotype. […] No antibodies were detected with reactivity to the citrulline using a citrulline fibrin peptide substrate in the ELISA. […] (data not shown) L.E.A.P.S. conjugates serum cytokine studies

For “DGQEEKAGVVSTGLI-GGGGS-TGGKPGIAGFKGEQGPKGEP (DGQEEKAGVVSTGLIGGGGSTGGKPGIAGFKGEQGPKGEP; Completely synthesized peptide construct) [CEL-2001]”, the “effectiveness in the murine CIA model of RA relative to SEQ ID NO. 99” value [1] was “less effective”.
With DLLKNGERIEKVEGGG [J] the “most remarkable change in cytokine levels upon immunization” value (cytokines) was “reduction in IL10 levels”.
“DLLKNGERIEKVEGGGTGGKPGIAGFKGEQGPKGEP (Completely synthesized peptide construct) [CEL-2000, peptide J combined with the human type II collagen peptide 254-273]” was tested, and the “AI scores, reduction compared with other conjugates” value ([1]; study 4.1, 33 nmoles, versus CEL-2001 or CEL-2002) was “reduced to a greater extent than was seen with other conjugates”, the “progression of disease, as indicated by AI scores” value ([1]; study 4.1) was “limited the progression of disease” and the “progression of disease over the experimental period” value ([1]; study 4.2, 100 nmol dose (3× treatment) on days 0 and 7) was “appeared to limit the progression of disease throughout the experimental period”. For the same substance, the “progression of arthritis disease compared with Enbrel” value ([1]; study 4.2, 2 doses of 33 or 100 nmol subcutaneously on days 0 and 7 or 0 and 14, Enbrel every other day for 28 days) was “at least as good as those of mice treated with Enbrel”, the “Joint thickening, redness, immobilization of joints in a digit or total paw” value ([1]; study 4.2, each of the 4 paws) was “reduced” and the “progression of disease, as indicated by reduced AI scores” value ([1]; study 4.2, treatment started when group score was 3.5) was “limited the progression of disease”. For the same substance, the “duration of effect versus Enbrel” value ([2]; 2 vaccinations at 100 nmol, 28 day period) was “more lasting effect than the multiple Enbrel treatments”, the “protection by all 4 histopathology criteria (group ranking)” value ([2]; 3× (100 nmol) on days 0 and 7, FIG. 4) was “best protected group (least diseased) by all 4 criteria” and the “disease pathology compared statistically with untreated CIA mice” value [2] was “statistically had less disease pathology”. The “histopathology: bone resorption” value [2] was “less bone resorption in fewer digit joints”, the “histopathology: cartilage damage” value [2] was “minimal” and the “histopathology: inflammation” value [2] was “mild”. For the same substance, the “histopathology: pannus” value [2] was “minimal”.
In the case of Enbrel [reference compound], the “progression of disease, as indicated by AI scores” value ([1]; study 4.1) is reported as “slightly more effective than the vaccine”, the “disease pathology compared statistically with untreated CIA mice” value [2] is reported as “not statistically different from untreated CIA mice” and the “histopathology: bone resorption” value [2] is reported as “minimal”. For the same substance, the “histopathology: cartilage damage” value [2] was “mild”, the “histopathology: inflammation” value [2] was “mild” and the “histopathology: pannus” value [2] was “minimal”. The “antibodies to Enbrel in sera” value [3] was “antibodies could be detected”.
In the case of “TGGKPGIAGFKGEQGPKGEP ((254)..(273) Type II Collagen; listed as Homo sapiens) [CEL-2002]”, the “effectiveness in the murine CIA model of RA relative to SEQ ID NO. 99” value [1] is reported as “less effective”.
